Experimental data from PubChem BioAssay AID328 (DTP/NCI, 2004).
“And” between values parts separate entries of the source, which are not always exact repeats. Equal entries are not always repeated. Inconclusive results and toxic doses are left out.

System: BDF1 mice, P388 leukemia ip, median survival T/C
Assay: NCI In Vivo Anticancer Drug Screen. Data for tumor model P388 Leukemia (intraperitoneal) in B6D2F1 (BDF1) mice
Details: endpoint: median survival time, higher = longer survival
Outline: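 Reported as T/C, where T is the survival measurement in dosed animals and C the same measurement in vehicle controls.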

[1] = dose: 100.0 mg/kg/injection, schedule: Q01DX009 (ip), vehicle: saline
[2] = dose: 200.0 mg/kg/injection, schedule: Q01DX009 (ip), vehicle: saline
[3] = dose: 400.0 mg/kg/injection, schedule: Q01DX009 (ip), vehicle: saline
[4] = dose: 50.0 mg/kg/injection, schedule: Q01DX009 (ip), vehicle: saline with Tween-80
[5] = dose: 100.0 mg/kg/injection, schedule: Q01DX009 (ip), vehicle: saline with Tween-80
[6] = dose: 200.0 mg/kg/injection, schedule: Q01DX009 (ip), vehicle: saline with Tween-80
[7] = dose: 3.13 mg/kg/injection, schedule: Q01DX009 (ip), vehicle: saline
[8] = dose: 6.25 mg/kg/injection, schedule: Q01DX009 (ip), vehicle: saline
[9] = dose: 50.0 mg/kg/injection, schedule: Q01DX009 (ip), vehicle: saline
[10] = dose: 100.0 mg/kg/injection, schedule: Q01DX009 (ip), vehicle: Klucel (hydroxypropylcellulose) (HPC)
[11] = dose: 200.0 mg/kg/injection, schedule: Q01DX009 (ip), vehicle: Klucel (hydroxypropylcellulose) (HPC)
[12] = dose: 25.0 mg/kg/injection, schedule: Q01DX009 (ip), vehicle: saline with Tween-80

Structure (SMILES): CC(=O)OC1CCC2C3CCC4=C(Cl)C(=O)CCC4C3CCC12C (centres undefined)
- T/C (dose: 100.0 mg/kg/injection, schedule: Q04DX003 (sc), vehicle: steriod suspending solution): 90 % of control
- T/C (dose: 200.0 mg/kg/injection, schedule: Q04DX003 (sc), vehicle: steriod suspending solution): 100 % of control
- T/C (dose: 400.0 mg/kg/injection, schedule: Q04DX003 (sc), vehicle: steriod suspending solution): 100 % of control

Structure (SMILES): CC[C@]1(O)C[C@H](OC2CC(N(C)C)C(OC3CC(O)C(O)C(C)O3)C(C)O2)c2c(cc3c(c2O)C(=O)c2c(O)ccc(O)c2C3=O)[C@H]1C(=O)OC (some centres undefined)
- T/C (dose: 0.4 mg/kg/injection, schedule: Q01DX009 (ip), vehicle: Klucel (hydroxypropylcellulose) (HPC)): 171 % of control
- T/C (dose: 0.8 mg/kg/injection, schedule: Q01DX009 (ip), vehicle: Klucel (hydroxypropylcellulose) (HPC)): 158 % of control and 165 % of control
- T/C (dose: 1.6 mg/kg/injection, schedule: Q01DX009 (ip), vehicle: Klucel (hydroxypropylcellulose) (HPC)): 201 % of control and 222 % of control
- T/C (dose: 3.46 mg/kg/injection, schedule: Q04DX003 (ip), vehicle: other): 185 % of control
- T/C (dose: 5.76 mg/kg/injection, schedule: Q04DX003 (ip), vehicle: other): 217 % of control
- T/C (dose: 9.6 mg/kg/injection, schedule: Q04DX003 (ip), vehicle: other): 105 % of control

Structure (SMILES): Cc1oc(-c2ccccc2)nc1C(=O)Cl
- T/C (dose: 100.0 mg/kg/injection, schedule: Q01DX001 (ip), vehicle: saline with Tween-80): 120 % of control
- T/C (dose: 200.0 mg/kg/injection, schedule: Q01DX001 (ip), vehicle: saline with Tween-80): 113 % of control
- T/C (dose: 400.0 mg/kg/injection, schedule: Q01DX001 (ip), vehicle: saline with Tween-80): 103 % of control

Structure (SMILES): CCOC(N)=O
- T/C [1]: 120 % of control
- T/C (dose: 125.0 mg/kg/injection, schedule: Q01DX010 (ip), vehicle: saline): 154 % of control
- T/C [2]: 90 % of control
- T/C (dose: 250.0 mg/kg/injection, schedule: Q01DX010 (ip), vehicle: saline): 154 % of control
- T/C [3]: 100 % of control
- T/C (dose: 500.0 mg/kg/injection, schedule: Q01DX010 (ip), vehicle: saline): 113 % of control

Structure (SMILES): O=C(NC12CC3CC(CC(C3)C1)C2)C(F)(F)F
- T/C [4]: 98 % of control
- T/C [5]: 105 % of control
- T/C [6]: 102 % of control

Structure (SMILES): CCN(CC)CCCCCCNc1cc(OC)c(OC)c2c(C)ccnc12
- T/C [7]: 102 % of control
- T/C [8]: 109 % of control

Structure (SMILES): CCCCN1CCCC(O)C1 (centres undefined)
- T/C [9]: 100 % of control
- T/C (dose: 50.0 mg/kg/injection, schedule: Q04DX003 (ip), vehicle: saline with Tween-80): 105 % of control
- T/C [1]: 100 % of control
- T/C (dose: 100.0 mg/kg/injection, schedule: Q04DX003 (ip), vehicle: saline with Tween-80): 110 % of control
- T/C (dose: 200.0 mg/kg/injection, schedule: Q04DX003 (ip), vehicle: saline with Tween-80): 100 % of control

Structure (SMILES): CCCCCCCC(=O)[O][Hg][CH2]C1COC([CH2][Hg][O]C(=O)CCCCCCC)CO1 (centres undefined)
- T/C (dose: 12.5 mg/kg/injection, schedule: Q01DX009 (ip), vehicle: saline sonified): 110 % of control
- T/C (dose: 50.0 mg/kg/injection, schedule: Q04DX003 (ip), vehicle: saline sonified): 116 % of control

Structure (SMILES): O=C(Nc1ccccc1C(=O)c1ccccn1)c1ccccc1
- T/C (dose: 100.0 mg/kg/injection, schedule: Q04DX003 (ip), vehicle: saline sonified): 90 % of control
- T/C (dose: 200.0 mg/kg/injection, schedule: Q04DX003 (ip), vehicle: saline sonified): 90 % of control
- T/C (dose: 400.0 mg/kg/injection, schedule: Q04DX003 (ip), vehicle: saline sonified): 90 % of control

Structure (SMILES): CC(=O)NC(C(=O)N/N=C(\C)c1ccccc1)C(=O)N/N=C(\C)c1ccccc1
- T/C [4]: 98 % of control
- T/C [5]: 101 % of control
- T/C [6]: 89 % of control

Structure (SMILES): CCCCCCCCCOc1ccc(C=O)cc1OC
- T/C (dose: 100.0 mg/kg/injection, schedule: Q01DX001 (ip), vehicle: saline sonified): 100 % of control
- T/C (dose: 200.0 mg/kg/injection, schedule: Q01DX001 (ip), vehicle: saline sonified): 90 % of control
- T/C (dose: 400.0 mg/kg/injection, schedule: Q01DX001 (ip), vehicle: saline sonified): 100 % of control

Structure (SMILES): O=C(c1ccccc1)c1c2ccccc2c(C(=O)c2ccccc2)c2ccccc12
- T/C [10]: 105 % of control
- T/C (dose: 100.0 mg/kg/injection, schedule: Q04DX003 (ip), vehicle: Klucel (hydroxypropylcellulose) (HPC)): 91 % of control
- T/C [11]: 100 % of control
- T/C (dose: 200.0 mg/kg/injection, schedule: Q04DX003 (ip), vehicle: Klucel (hydroxypropylcellulose) (HPC)): 100 % of control
- T/C (dose: 400.0 mg/kg/injection, schedule: Q04DX003 (ip), vehicle: Klucel (hydroxypropylcellulose) (HPC)): 95 % of control

Structure (SMILES): COc1ccc2[nH]c3c(C)c4cc[n+](CCCCCCCC[n+]5ccc6c(C)c7[nH]c8ccc(OC)cc8c7c(C)c6c5)cc4c(C)c3c2c1
- T/C (dose: 6.25 mg/kg/injection, schedule: Q04DX003 (ip), vehicle: other): 121 % of control

Structure (SMILES): C=CCN1c2ccccc2Sc2cnccc21
- T/C [4]: 109 % of control
- T/C [5]: 100 % of control and 104 % of control
- T/C [6]: 100 % of control

Structure (SMILES): COC1OC(COC(C)=O)C(OC(C)=O)C(OC(C)=O)[CH]1[Hg][O]C(C)=O (centres undefined)
- T/C [7]: 95 % of control
- T/C [8]: 114 % of control

Structure (SMILES): Cc1cc(Cl)n[nH]1
- T/C [12]: 98 % of control

Structure (SMILES): O=C1C(c2ccccc2)=C(c2ccccc2)C(c2ccccc2)=C1c1ccccc1
- T/C (dose: 0.78 mg/kg/injection, schedule: Q04DX003 (ip), vehicle: water): 88 % of control
- T/C (dose: 1.56 mg/kg/injection, schedule: Q01DX009 (ip), vehicle: water): 103 % of control
- T/C (dose: 1.56 mg/kg/injection, schedule: Q04DX003 (ip), vehicle: water): 95 % of control
- T/C (dose: 3.12 mg/kg/injection, schedule: Q01DX009 (ip), vehicle: water): 94 % of control
- T/C (dose: 3.12 mg/kg/injection, schedule: Q04DX003 (ip), vehicle: water): 88 % of control
- T/C (dose: 6.25 mg/kg/injection, schedule: Q01DX009 (ip), vehicle: water): 97 % of control
- T/C (dose: 6.25 mg/kg/injection, schedule: Q04DX003 (ip), vehicle: water): 106 % of control
- T/C (dose: 12.5 mg/kg/injection, schedule: Q01DX009 (ip), vehicle: water): 94 % of control
- T/C (dose: 12.5 mg/kg/injection, schedule: Q04DX003 (ip), vehicle: water): 100 % of control
- T/C (dose: 25.0 mg/kg/injection, schedule: Q01DX009 (ip), vehicle: water): 97 % of control
- T/C (dose: 50.0 mg/kg/injection, schedule: Q01DX009 (ip), vehicle: water): 97 % of control
- T/C (dose: 100.0 mg/kg/injection, schedule: Q01DX009 (ip), vehicle: water): 101 % of control
- T/C (dose: 200.0 mg/kg/injection, schedule: Q01DX009 (ip), vehicle: water): 91 % of control
- T/C (dose: 400.0 mg/kg/injection, schedule: Q01DX009 (ip), vehicle: water): 87 % of control

Structure (SMILES): CC(=O)CC(=O)Nc1ccccn1
- T/C [12]: 95 % of control
- T/C [4]: 92 % of control
- T/C [5]: 98 % of control
- T/C [6]: 104 % of control

Structure (SMILES): COC(=O)CCCNC(=O)/C=C1/c2cc(OC)c(OC)cc2CCC1S(=O)(=O)OC (centres undefined)
- T/C [1]: 104 % of control
- T/C [2]: 90 % of control
- T/C [3]: 100 % of control

Structure (SMILES): C(CCC1CO1)CC1CO1 (centres undefined)
- T/C (dose: 50.0 mg/kg/injection, schedule: Q04DX005 (ip), vehicle: saline with Tween-80): 115 % of control
- T/C (dose: 200.0 mg/kg/injection, schedule: Q04DX002 (ip), vehicle: saline with Tween-80): 173 % of control

Structure (SMILES): CC1N2C3(c4ccccc4)OC(c4ccccc4)(c4ccccc43)C12c1ccccc1 (centres undefined)
- T/C (dose: 50.0 mg/kg/injection, schedule: Q01DX009 (ip), vehicle: Klucel (hydroxypropylcellulose) (HPC)): 104 % of control
- T/C [10]: 100 % of control
- T/C [11]: 89 % of control

Structure (SMILES): COc1ccc(Oc2nc(=O)n3ccccc3n2)cc1
- T/C [4]: 93 % of control
- T/C [5]: 90 % of control
- T/C [6]: 88 % of control

Structure (SMILES): COc1cccc2c1C(=O)c1c(O)c3c(c(O)c1C2=O)C[C@@](O)(C(=O)CO)C[C@@H]3OC1CC(NC(=S)Nc2ccc(F)cc2)C(O)C(C)O1 (some centres undefined)
- T/C [8]: 90 % of control
- T/C (dose: 25.0 mg/kg/injection, schedule: Q01DX009 (ip), vehicle: saline): 150 % of control
- T/C [9]: 106 % of control
- T/C [1]: 122 % of control
